Laboratory results from PubChem BioAssay (NCI).
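Briefly, cells in 96-well plates were exposed to five compound concentrations for 48 h, and endpoints were estimated by linear interpolation. GI50 is the concentration that inhibits growth by half. Definition used: TGI = concentration required for complete inhibition of growth.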

Assays:
Test in all cases: growth of human tumour cells (NCI), 48 h
TK-10 renal = tested on: TK-10 renal
786-0 renal = tested on: 786-0 renal
OVCAR-4 ovarian = tested on: OVCAR-4 ovarian
HT29 colon = tested on: HT29 colon
EKVX NSCLC = tested on: EKVX NSCLC
M14 melanoma = tested on: M14 melanoma
MDA-MB-435 = tested on: MDA-MB-435
IGROV1 ovarian = tested on: IGROV1 ovarian
UACC-62 melanoma = tested on: UACC-62 melanoma
SW-620 colon = tested on: SW-620 colon
KM12 colon = tested on: KM12 colon
MDA-MB-231 breast = tested on: MDA-MB-231 breast
ACHN renal = tested on: ACHN renal
NCI/ADR-RES ovarian = tested on: NCI/ADR-RES ovarian
MOLT-4 leukemia = tested on: MOLT-4 leukemia
HS 578T breast = tested on: HS 578T breast
PC-3 prostate = tested on: PC-3 prostate
SF-268 CNS = tested on: SF-268 CNS
U251 CNS = tested on: U251 CNS
HOP-92 NSCLC = tested on: HOP-92 NSCLC
SF-539 CNS = tested on: SF-539 CNS
SNB-19 CNS = tested on: SNB-19 CNS
NCI-H226 lung = tested on: NCI-H226 lung
CCRF-CEM leukemia = tested on: CCRF-CEM leukemia
CAKI-1 renal = tested on: CAKI-1 renal
HOP-62 NSCLC = tested on: HOP-62 NSCLC
SF-295 CNS = tested on: SF-295 CNS
OVCAR-8 ovarian = tested on: OVCAR-8 ovarian
UACC-257 melanoma = tested on: UACC-257 melanoma
HCT-15 colon = tested on: HCT-15 colon
A498 renal = tested on: A498 renal
NCI-H23 lung = tested on: NCI-H23 lung
HCT-116 colon = tested on: HCT-116 colon
SNB-75 CNS = tested on: SNB-75 CNS
SK-MEL-5 melanoma = tested on: SK-MEL-5 melanoma
COLO 205 colon = tested on: COLO 205 colon
HL-60(TB) leukemia = tested on: HL-60(TB) leukemia
NCI-H522 lung = tested on: NCI-H522 lung
OVCAR-5 ovarian = tested on: OVCAR-5 ovarian
MALME-3M melanoma = tested on: MALME-3M melanoma
UO-31 renal = tested on: UO-31 renal
DU-145 prostate = tested on: DU-145 prostate
HCC-2998 colon = tested on: HCC-2998 colon
K-562 leukemia = tested on: K-562 leukemia
SN12C renal = tested on: SN12C renal
BT-549 breast = tested on: BT-549 breast
A549 NSCLC = tested on: A549 NSCLC
LOX IMVI melanoma = tested on: LOX IMVI melanoma
T-47D breast = tested on: T-47D breast
SK-MEL-2 melanoma = tested on: SK-MEL-2 melanoma
SK-OV-3 ovarian = tested on: SK-OV-3 ovarian

`CC(=O)OC12C=C(C)C(C(C)C1)C1C(=O)N(CCN3CCOCC3)C(=O)C12` (configuration not stated) was tested, and the GI50 (TK-10 renal) was over 100 µM, the TGI (TK-10 renal) was over 100 µM and the GI50 (786-0 renal) was over 100 µM. The TGI (786-0 renal) was over 100 µM, the GI50 (OVCAR-4 ovarian) was over 100 µM and the TGI (OVCAR-4 ovarian) was over 100 µM. It also gave a GI50 (HT29 colon) of over 100 µM, a TGI (HT29 colon) of over 100 µM and a GI50 (EKVX NSCLC) of over 100 µM. For the same molecule, the TGI (EKVX NSCLC) was over 100 µM, the GI50 (M14 melanoma) was over 100 µM and the TGI (M14 melanoma) was over 100 µM. The GI50 (MDA-MB-435) was over 100 µM, the TGI (MDA-MB-435) was over 100 µM and the GI50 (IGROV1 ovarian) was over 100 µM. For the same molecule, the TGI (IGROV1 ovarian) was over 100 µM, the GI50 (UACC-62 melanoma) was over 100 µM and the TGI (UACC-62 melanoma) was over 100 µM. For the same molecule, the GI50 (SW-620 colon) was over 100 µM, the TGI (SW-620 colon) was over 100 µM and the GI50 (KM12 colon) was over 100 µM. The TGI (KM12 colon) was over 100 µM, the GI50 (MDA-MB-231 breast) was over 100 µM and the TGI (MDA-MB-231 breast) was over 100 µM. For the same molecule, the GI50 (ACHN renal) was over 100 µM, the TGI (ACHN renal) was over 100 µM and the GI50 (NCI/ADR-RES ovarian) was over 100 µM. For the same molecule, the TGI (NCI/ADR-RES ovarian) was over 100 µM, the GI50 (MOLT-4 leukemia) was over 100 µM and the TGI (MOLT-4 leukemia) was over 100 µM. The GI50 (HS 578T breast) was over 100 µM, the TGI (HS 578T breast) was over 100 µM and the GI50 (PC-3 prostate) was over 100 µM. It also gave a TGI (PC-3 prostate) of over 100 µM, a GI50 (SF-268 CNS) of over 100 µM and a TGI (SF-268 CNS) of over 100 µM. The GI50 (U251 CNS) was over 100 µM, the TGI (U251 CNS) was over 100 µM and the GI50 (HOP-92 NSCLC) was over 100 µM. For the same molecule, the TGI (HOP-92 NSCLC) was over 100 µM, the GI50 (SF-539 CNS) was over 100 µM and the TGI (SF-539 CNS) was over 100 µM. The GI50 (SNB-19 CNS) was over 100 µM, the TGI (SNB-19 CNS) was over 100 µM and the GI50 (NCI-H226 lung) was over 100 µM. The TGI (NCI-H226 lung) was over 100 µM, the GI50 (CCRF-CEM leukemia) was over 100 µM and the TGI (CCRF-CEM leukemia) was over 100 µM. For the same molecule, the GI50 (CAKI-1 renal) was over 100 µM, the TGI (CAKI-1 renal) was over 100 µM and the GI50 (HOP-62 NSCLC) was over 100 µM. For the same molecule, the TGI (HOP-62 NSCLC) was over 100 µM, the GI50 (SF-295 CNS) was over 100 µM and the TGI (SF-295 CNS) was over 100 µM. The GI50 (OVCAR-8 ovarian) was over 100 µM, the TGI (OVCAR-8 ovarian) was over 100 µM and the GI50 (UACC-257 melanoma) was over 100 µM. The TGI (UACC-257 melanoma) was over 100 µM, the GI50 (HCT-15 colon) was over 100 µM and the TGI (HCT-15 colon) was over 100 µM. It also gave a GI50 (A498 renal) of over 100 µM, a TGI (A498 renal) of over 100 µM and a GI50 (NCI-H23 lung) of over 100 µM. For the same molecule, the TGI (NCI-H23 lung) was over 100 µM, the GI50 (HCT-116 colon) was over 100 µM and the TGI (HCT-116 colon) was over 100 µM. The GI50 (SNB-75 CNS) was over 100 µM, the TGI (SNB-75 CNS) was over 100 µM and the GI50 (SK-MEL-5 melanoma) was over 100 µM. The TGI (SK-MEL-5 melanoma) was over 100 µM, the GI50 (COLO 205 colon) was over 100 µM and the TGI (COLO 205 colon) was over 100 µM. It also gave a GI50 (HL-60(TB) leukemia) of over 100 µM, a TGI (HL-60(TB) leukemia) of over 100 µM and a GI50 (NCI-H522 lung) of over 100 µM. For the same molecule, the TGI (NCI-H522 lung) was over 100 µM, the GI50 (OVCAR-5 ovarian) was over 100 µM and the TGI (OVCAR-5 ovarian) was over 100 µM. For the same molecule, the GI50 (MALME-3M melanoma) was over 100 µM, the TGI (MALME-3M melanoma) was over 100 µM and the GI50 (UO-31 renal) was over 100 µM. The TGI (UO-31 renal) was over 100 µM, the GI50 (DU-145 prostate) was over 100 µM and the TGI (DU-145 prostate) was over 100 µM. The GI50 (HCC-2998 colon) was over 100 µM, the TGI (HCC-2998 colon) was over 100 µM and the GI50 (K-562 leukemia) was over 100 µM. It also gave a TGI (K-562 leukemia) of over 100 µM, a GI50 (SN12C renal) of over 100 µM and a TGI (SN12C renal) of over 100 µM. The GI50 (BT-549 breast) was over 100 µM, the TGI (BT-549 breast) was over 100 µM and the GI50 (A549 NSCLC) was over 100 µM. The TGI (A549 NSCLC) was over 100 µM, the GI50 (LOX IMVI melanoma) was over 100 µM and the TGI (LOX IMVI melanoma) was over 100 µM. For the same molecule, the GI50 (T-47D breast) was over 100 µM, the TGI (T-47D breast) was over 100 µM and the GI50 (SK-MEL-2 melanoma) was over 100 µM. For the same molecule, the TGI (SK-MEL-2 melanoma) was over 100 µM, the GI50 (SK-OV-3 ovarian) was over 100 µM and the TGI (SK-OV-3 ovarian) was over 100 µM.
